Reference: PubChem BioAssay (NCI)
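Assay format: 96-well plates, 48-hour exposure. TGI: total growth inhibition.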 Where a SMILES comes first, the peptide text is derived from it. [ ]: non-standard residue; d: D form. pGlu = O=C1CC[CH](C(=O)O)N1

Assays:
Experiment in all cases: inhibition of tumour cell growth, NCI panel, 48 h
[1] = test system: COLO 205 colon
[2] = test system: OVCAR-4 ovarian
[3] = test system: HL-60(TB) leukemia
[4] = test system: SNB-19 CNS
[5] = test system: MCF7 breast
[6] = test system: PC-3 prostate
[7] = test system: KM12 colon
[8] = test system: EKVX NSCLC
[9] = test system: UO-31 renal
[10] = test system: SF-539 CNS
[11] = test system: HCT-15 colon

## COc1ccc(/C=C2\N=C(N3CCCC(CO)C3)NC2=O)cc1 (centres undefined)
[1]
  TGI: > 100 µM
[2]
  TGI: > 100 µM
[3]
  TGI: > 100 µM
[4]
  TGI: > 100 µM
[5]
  TGI: > 100 µM
[6]
  TGI: > 100 µM
[7]
  TGI: > 100 µM
[8]
  TGI: > 100 µM
[9]
  TGI: > 100 µM
[10]
  TGI: > 100 µM
[11]
  TGI: > 100 µM

## COC(NC(=O)Nc1ccc(C)cc1)(C(F)(F)F)C(F)(F)F
[1]
  TGI: 36.8 µM
[2]
  TGI: > 100 µM
[3]
  TGI: > 100 µM
[4]
  TGI: 87.2 µM
[5]
  TGI: > 100 µM
[6]
  TGI: > 100 µM
[7]
  TGI: > 100 µM
[9]
  TGI: 53.6 µM
[10]
  TGI: > 100 µM

## CN1CCC2(CC1)SSC1(CCN(C)CC1)S2
[1]
  TGI: > 100 µM
[2]
  TGI: > 100 µM
[3]
  TGI: > 100 µM
[4]
  TGI: > 100 µM
[6]
  TGI: > 100 µM
[7]
  TGI: > 100 µM
[9]
  TGI: > 100 µM
[10]
  TGI: > 100 µM
[11]
  TGI: > 100 µM

## C=C1C2CCC3C4(C)CCCC(C)(C(=O)O)C4CCC3(C2)C1OC(=O)/C(C)=C/C (centres undefined)
[1]
  TGI: 82.1 µM
[2]
  TGI: > 100 µM
[3]
  TGI: 56.7 µM
[5]
  TGI: 70.8 µM
[6]
  TGI: > 100 µM
[7]
  TGI: 35.1 µM
[8]
  TGI: > 100 µM
[9]
  TGI: 52.9 µM
[10]
  TGI: 55.1 µM
[11]
  TGI: 61.6 µM

## CC1OC(OC2C(O)COC(OC3C(C)OC(OC4C(OC(=O)[C@]56CCC(C)(C)C[C@@H]5C5=CCC7[C@@]8(C)C[C@H](O)[C@H](OC9OC(CO)C(O)C(O)C9O)[C@@](C)(CO)[C@@H]8CC[C@@]7(C)[C@]5(C)CC6)OCC(O)C4O)C(O)C3O)C2O)C(O)C(O)C1O (some centres undefined)
[1]
  TGI: 38.7 µM
[2]
  TGI: 52.1 µM
[4]
  TGI: 38.7 µM
[5]
  TGI: > 100 µM
[6]
  TGI: 38.3 µM
[7]
  TGI: > 100 µM
[8]
  TGI: 33.1 µM
[9]
  TGI: 28.4 µM
[10]
  TGI: 42.8 µM
[11]
  TGI: 50.8 µM

## c1ccc2c3c(ccc2c1)-c1[nH]ncc1CCO3
[1]
  TGI: 99.7 µM
[2]
  TGI: > 84.9 µM
[3]
  TGI: 41.2 µM
[4]
  TGI: > 100 µM
[5]
  TGI: > 100 µM
[7]
  TGI: > 100 µM
[8]
  TGI: 45 µM
[9]
  TGI: 65.2 µM
[10]
  TGI: 69.8 µM
[11]
  TGI: > 100 µM

## CCCn1cc2c(=O)[nH]c(SC)nc2n1
[1]
  TGI: > 100 µM
[2]
  TGI: > 100 µM
[3]
  TGI: > 100 µM
[4]
  TGI: > 100 µM
[7]
  TGI: > 100 µM
[8]
  TGI: > 100 µM
[9]
  TGI: > 100 µM
[10]
  TGI: > 100 µM
[11]
  TGI: > 100 µM

## CC1CCN(C(C)C)P(=S)(Cc2ccccc2)O1 (centres undefined)
[1]
  TGI: > 100 µM
[2]
  TGI: > 100 µM
[4]
  TGI: > 100 µM
[5]
  TGI: > 100 µM
[6]
  TGI: > 100 µM
[7]
  TGI: > 100 µM
[8]
  TGI: > 100 µM
[9]
  TGI: > 100 µM
[10]
  TGI: > 100 µM
[11]
  TGI: > 100 µM

## Cc1ccc2c(c1)nc1n2C(c2c(F)cccc2F)SC1 (centres undefined)
[1]
  TGI: > 100 µM
[2]
  TGI: > 100 µM
[4]
  TGI: > 100 µM
[5]
  TGI: > 100 µM
[6]
  TGI: > 100 µM
[7]
  TGI: > 100 µM
[8]
  TGI: > 100 µM
[9]
  TGI: > 100 µM
[10]
  TGI: 59.2 µM
[11]
  TGI: 82.4 µM

## COC(=O)CCc1ccc(CCC(=O)OC)cc1
[2]
  TGI: > 100 µM
[3]
  TGI: > 100 µM
[4]
  TGI: > 100 µM
[5]
  TGI: > 100 µM
[6]
  TGI: > 100 µM
[8]
  TGI: > 100 µM
[9]
  TGI: > 100 µM
[10]
  TGI: > 100 µM
[11]
  TGI: > 100 µM

## O=c1onc2n1-c1ccc(Cl)cc1C(=S)N1CSCC21 (centres undefined)
[1]
  TGI: 35.1 µM
[2]
  TGI: > 100 µM
[4]
  TGI: 52.5 µM
[5]
  TGI: 96.9 µM
[6]
  TGI: > 100 µM
[7]
  TGI: 59.6 µM
[8]
  TGI: > 100 µM
[9]
  TGI: > 100 µM
[11]
  TGI: 95.3 µM

## CN(C)Cc1cc(Cl)c(O)c(CN(C)C)c1
[1]
  TGI: > 100 µM
[2]
  TGI: > 100 µM
[3]
  TGI: > 100 µM
[4]
  TGI: > 100 µM
[5]
  TGI: > 100 µM
[6]
  TGI: > 100 µM
[7]
  TGI: > 100 µM
[8]
  TGI: > 100 µM
[9]
  TGI: > 100 µM
[11]
  TGI: > 100 µM

## Fc1cc(C2=Nn3c(COc4ccccc4Cl)nnc3S/C2=C\c2ccc(Cl)cc2)c(Cl)cc1Cl
[2]
  TGI: 35.9 µM
[3]
  TGI: 68.4 µM
[5]
  TGI: 83.4 µM
[6]
  TGI: 68.9 µM
[7]
  TGI: 19.6 µM
[8]
  TGI: > 100 µM
[9]
  TGI: 93.8 µM
[10]
  TGI: > 100 µM
[11]
  TGI: 20.7 µM

## CC(NC(=O)C1CCC(=O)N1)C(=O)N1CCCC1C(N)=O (stereo not drawn) ([pGlu]-Ala-Pro-NH2; configuration not given here)
[1]
  TGI: > 100 µM
[2]
  TGI: > 100 µM
[3]
  TGI: > 100 µM
[4]
  TGI: > 100 µM
[5]
  TGI: > 100 µM
[6]
  TGI: > 100 µM
[7]
  TGI: > 100 µM
[8]
  TGI: > 100 µM
[9]
  TGI: > 100 µM
[11]
  TGI: > 100 µM

## COC(=O)C(Cc1c[nH]c2ccccc12)NC(=O)C(Cc1cnc[nH]1)NC(=O)C1CCC(=O)N1C(=O)OCc1ccccc1 (centres undefined)
[1]
  TGI: > 100 µM
[3]
  TGI: > 100 µM
[4]
  TGI: > 100 µM
[5]
  TGI: > 100 µM
[6]
  TGI: > 100 µM
[7]
  TGI: > 100 µM
[8]
  TGI: > 100 µM
[9]
  TGI: > 100 µM

## O=C(Nc1ccccc1)N(CCN(Cc1ccccc1)C(=O)Nc1ccccc1)CCN(Nc1ccccc1)C(=O)Nc1ccccc1
[1]
  TGI: > 100 µM
[2]
  TGI: > 100 µM
[3]
  TGI: > 100 µM
[4]
  TGI: > 100 µM
[5]
  TGI: > 100 µM
[6]
  TGI: > 100 µM
[7]
  TGI: > 100 µM
[8]
  TGI: > 100 µM
[9]
  TGI: > 100 µM
[11]
  TGI: > 100 µM

## C(=N\c1nc2cc3sc(/N=C/c4ccccc4)nc3cc2s1)/c1ccccc1
[1]
  TGI: > 100 µM
[2]
  TGI: > 100 µM
[4]
  TGI: > 100 µM
[5]
  TGI: > 100 µM
[6]
  TGI: > 100 µM
[7]
  TGI: > 100 µM
[8]
  TGI: > 100 µM
[9]
  TGI: > 100 µM
[10]
  TGI: > 100 µM
[11]
  TGI: > 100 µM

## COC(=O)C1=CO[C@@H](C)[C@@H]2Cn3ccc4c5ccccc5nc-4c3C[C@H]12
[1]
  TGI: > 100 µM
[2]
  TGI: > 100 µM
[4]
  TGI: > 100 µM
[8]
  TGI: > 100 µM
[9]
  TGI: > 100 µM
[10]
  TGI: > 100 µM
[11]
  TGI: > 100 µM

## Cc1nc(OCc2ccccc2)c2ncn(CCO)c2n1
[1]
  TGI: > 100 µM
[2]
  TGI: > 100 µM
[3]
  TGI: > 100 µM
[4]
  TGI: > 100 µM
[5]
  TGI: > 100 µM
[6]
  TGI: > 100 µM
[7]
  TGI: > 100 µM
[9]
  TGI: > 100 µM
[10]
  TGI: > 100 µM

## O=c1[nH]c(NCc2cccnc2)nc2nc[nH]c12
[1]
  TGI: > 100 µM
[2]
  TGI: > 100 µM
[4]
  TGI: > 100 µM
[5]
  TGI: > 100 µM
[6]
  TGI: > 100 µM
[7]
  TGI: > 100 µM
[8]
  TGI: > 100 µM
[9]
  TGI: > 100 µM
[10]
  TGI: > 100 µM
[11]
  TGI: > 100 µM

## CCOC(=O)c1c(O)cn2c1[nH]c1cccc3cccc2c31
[1]
  TGI: > 100 µM
[2]
  TGI: > 100 µM
[3]
  TGI: > 100 µM
[4]
  TGI: > 100 µM
[5]
  TGI: > 100 µM
[6]
  TGI: > 100 µM
[7]
  TGI: > 100 µM
[8]
  TGI: > 100 µM
[9]
  TGI: > 100 µM
[11]
  TGI: > 100 µM
